Test results published in article PMC7954794, “Protein context shapes the specificity of SH3 domain-mediated interactions in vivo” (Nature Communications, 2021).

System: 575 putative partners (preys) of 22 WT SH3-containing proteins
Test: DHFR-PCA on solid medium, WT and SH3-deleted baits (Fig. 1B)
Format: cell-based, Saccharomyces cerevisiae
Design: key to Score: 0: SH3-independent; 1: SH3-dependent PPIs; 2: SH3-inhibited PPIs
Conditions: for SH3-dependent PPIs: number of PPIs, SH3 domain in its own protein, DHFR-PCA, Fig2D,S2F
Procedure, shortened: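 Interactions scored by DHFR protein-fragment complementation on solid medium using robotic pinning; preys (DHFR F[3] fusions) arrayed in duplicate with control borders. Baits carried C-terminal DHFR F[1,2]-FLAG tags, tested as wild type and as SH3-deleted versions carrying a flexible Gly/Ser stuffer.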

Substance | medrep (log2 median colony size normalized to plate background, PCA score) (bait SLA1-3, DHFR-PCA, label = prey, Replicates 4 (2 for YCR009C, YDR388W, YIL033C)) | Score (bait SLA1-3, label = prey) | SH3-dependent PPIs
YAL005C | 5.601 | 0 | 
CDC25 |  |  | 3
RVS167 |  |  | 31
